# ChEMBL document CHEMBL5331134, “Identification of Brain-Penetrant ATP-Competitive mTOR Inhibitors for CNS Syndromes” (J Med Chem, 2023)
# How the values were obtained:
# [1] = Drug concentration in C57BL/6 mouse plasma at 1 mg/kg, po measured after 1 hr; type: ADME, organism-based
# Cytochrome P450 2C9 = Cytochrome P450 2C9 (Homo sapiens, UniProt P11712); assay: Inhibition of CYP2C9 (unknown origin); type: ADME
# [2] = Genotoxicity in human TK6 cells assessed as micronuclei formation by micronucleus test; type: toxicity, cell-based
# [3] = Drug concentration in C57BL/6 mouse brain at 10 mg/kg, po measured after 8 hrs; type: ADME, organism-based; details: read-out: Ct
# [4] = Ratio of drug concentration in brain to plasma in C57BL/6 mouse at 30 mg/kg, po measured at 24 hrs; type: ADME, organism-based; details: brain and plasma, read-out: BPR
# [5] = Bioavailability in Sprague-Dawley rat at 3 mg/kg, po and 1 mg/kg, iv measured upto 24 hrs by HPLC-MS analysis; type: ADME, organism-based; details: in vivo
# [6] = molecular target: Serine/threonine-protein kinase ATR (Homo sapiens, UniProt Q13535); assay: Inhibition of ATR (unknown origin)-driven CHK1 phosphorylation
# Chain of Serine/threonine-protein kinase ATR (Q13535 whole entry): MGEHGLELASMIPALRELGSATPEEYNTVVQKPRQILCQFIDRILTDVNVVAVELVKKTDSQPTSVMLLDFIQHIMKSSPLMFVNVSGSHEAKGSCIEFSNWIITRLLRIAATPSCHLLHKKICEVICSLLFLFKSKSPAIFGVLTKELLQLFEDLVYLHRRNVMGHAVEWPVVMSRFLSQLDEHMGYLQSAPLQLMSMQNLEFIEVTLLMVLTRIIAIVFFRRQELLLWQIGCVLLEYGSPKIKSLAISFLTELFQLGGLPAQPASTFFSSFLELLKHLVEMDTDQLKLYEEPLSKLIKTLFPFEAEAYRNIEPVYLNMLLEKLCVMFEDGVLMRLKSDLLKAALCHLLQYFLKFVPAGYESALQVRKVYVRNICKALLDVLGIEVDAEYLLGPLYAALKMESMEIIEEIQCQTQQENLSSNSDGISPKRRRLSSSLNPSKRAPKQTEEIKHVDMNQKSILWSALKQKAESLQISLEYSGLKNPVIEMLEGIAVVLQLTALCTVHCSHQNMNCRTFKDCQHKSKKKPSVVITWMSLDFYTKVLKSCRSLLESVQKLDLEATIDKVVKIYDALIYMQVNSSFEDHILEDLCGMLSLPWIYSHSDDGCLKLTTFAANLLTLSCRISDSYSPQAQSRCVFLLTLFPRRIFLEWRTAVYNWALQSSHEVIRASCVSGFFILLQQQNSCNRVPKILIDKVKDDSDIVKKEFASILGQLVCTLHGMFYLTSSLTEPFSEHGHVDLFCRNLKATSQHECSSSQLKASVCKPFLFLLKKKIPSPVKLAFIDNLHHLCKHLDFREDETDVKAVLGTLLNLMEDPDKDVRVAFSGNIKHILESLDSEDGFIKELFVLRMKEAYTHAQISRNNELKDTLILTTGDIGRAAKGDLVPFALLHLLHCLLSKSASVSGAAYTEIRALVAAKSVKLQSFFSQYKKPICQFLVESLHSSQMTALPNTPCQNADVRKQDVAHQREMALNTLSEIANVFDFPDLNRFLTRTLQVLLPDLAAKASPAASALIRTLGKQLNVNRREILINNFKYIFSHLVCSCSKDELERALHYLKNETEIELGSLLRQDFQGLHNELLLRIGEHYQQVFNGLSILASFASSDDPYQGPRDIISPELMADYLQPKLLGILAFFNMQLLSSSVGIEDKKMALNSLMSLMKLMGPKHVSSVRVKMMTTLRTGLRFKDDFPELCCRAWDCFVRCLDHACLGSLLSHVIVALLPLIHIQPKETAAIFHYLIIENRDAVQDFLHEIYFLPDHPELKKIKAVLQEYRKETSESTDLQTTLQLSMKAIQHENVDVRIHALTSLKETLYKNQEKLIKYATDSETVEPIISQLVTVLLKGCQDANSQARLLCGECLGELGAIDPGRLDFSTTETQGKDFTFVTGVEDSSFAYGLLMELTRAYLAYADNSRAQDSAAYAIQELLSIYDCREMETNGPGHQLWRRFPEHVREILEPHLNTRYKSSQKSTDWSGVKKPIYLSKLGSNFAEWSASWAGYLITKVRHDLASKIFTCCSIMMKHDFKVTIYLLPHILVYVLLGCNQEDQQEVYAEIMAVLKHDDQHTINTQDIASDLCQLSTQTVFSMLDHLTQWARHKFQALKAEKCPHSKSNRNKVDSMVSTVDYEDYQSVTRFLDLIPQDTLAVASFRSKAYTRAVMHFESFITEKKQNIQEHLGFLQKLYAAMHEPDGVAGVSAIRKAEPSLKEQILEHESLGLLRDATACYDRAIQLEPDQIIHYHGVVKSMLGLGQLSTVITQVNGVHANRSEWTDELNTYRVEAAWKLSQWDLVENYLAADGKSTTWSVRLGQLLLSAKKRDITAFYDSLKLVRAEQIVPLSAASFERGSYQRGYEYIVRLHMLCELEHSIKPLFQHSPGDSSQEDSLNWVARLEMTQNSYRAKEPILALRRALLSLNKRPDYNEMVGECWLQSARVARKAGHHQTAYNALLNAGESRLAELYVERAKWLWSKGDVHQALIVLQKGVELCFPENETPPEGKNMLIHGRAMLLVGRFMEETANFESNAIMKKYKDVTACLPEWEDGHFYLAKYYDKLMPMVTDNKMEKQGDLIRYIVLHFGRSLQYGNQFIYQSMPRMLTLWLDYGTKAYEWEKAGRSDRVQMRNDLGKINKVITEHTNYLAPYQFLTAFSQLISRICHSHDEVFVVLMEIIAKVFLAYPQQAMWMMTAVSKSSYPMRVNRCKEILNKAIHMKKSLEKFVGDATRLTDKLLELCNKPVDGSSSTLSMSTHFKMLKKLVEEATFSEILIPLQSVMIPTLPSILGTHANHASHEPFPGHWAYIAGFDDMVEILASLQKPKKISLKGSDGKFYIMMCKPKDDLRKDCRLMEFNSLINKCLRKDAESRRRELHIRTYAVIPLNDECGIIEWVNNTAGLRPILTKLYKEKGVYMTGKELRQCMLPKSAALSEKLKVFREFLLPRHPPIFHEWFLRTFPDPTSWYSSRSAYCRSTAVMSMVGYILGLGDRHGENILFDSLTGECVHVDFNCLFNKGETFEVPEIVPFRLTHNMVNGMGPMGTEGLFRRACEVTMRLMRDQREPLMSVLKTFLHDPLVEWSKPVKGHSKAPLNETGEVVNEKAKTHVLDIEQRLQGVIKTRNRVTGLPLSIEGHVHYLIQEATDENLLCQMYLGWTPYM
# [7] = Plasma protein binding in Sprague-Dawley rat at 5 uM measured for 4 hrs by equilibrium dialysis method based LC/MS/MS analysis; type: ADME, cell-free; details: read-out: PPB (converted)
# [8] = Drug concentration in C57BL/6 mouse plasma at 30 mg/kg, po measured after 1 hr; type: ADME, organism-based
# [9] = Plasma protein binding in C57BL/6 mouse plasma at 5 uM measured for 4 hrs by equilibrium dialysis method based LC/MS/MS analysis; type: ADME, cell-free; details: read-out: PPB (converted)
# [10] = AUC(0 to t) in Sprague-Dawley rat at 3 mg/kg, po measured upto 24 hrs by HPLC-MS analysis; type: ADME, organism-based; parameters: dose 3 mg/kg, time < 24 hrs, route po; details: in vivo
# [11] = Protein binding in Sprague-Dawley rat brain at 5 uM measured for 4 hrs by equilibrium dialysis method based LC/MS/MS analysis; type: ADME, tissue-based; details: read-out: PB (converted)
# [12] = Drug concentration in C57BL/6 mouse brain at 10 mg/kg, po measured after 24 hrs; type: ADME, organism-based; details: read-out: Ct
# [13] = Drug concentration in C57BL/6 mouse plasma at 1 mg/kg, po measured after 8 hrs; type: ADME, organism-based
# [14] = Ratio of drug concentration in brain to plasma in C57BL/6 mouse at 30 mg/kg, po measured at 3 hrs; type: ADME, organism-based; details: read-out: BPR
# [15] = Ratio of drug concentration in brain to plasma in C57BL/6 mouse at 10 mg/kg, po measured at 1 hr; type: ADME, organism-based; details: brain and plasma, read-out: BPR
# [16] = Drug concentration in C57BL/6 mouse plasma at 10 mg/kg, po measured after 24 hrs; type: ADME, organism-based
# [17] = Genotoxicity in human TK6 cells assessed as micronuclei formation in absence of S9 fraction by micronucleus test; type: toxicity, cell-based
# [18] = Ratio of drug concentration in brain to plasma in Sprague-Dawley rat at 3 mg/kg, po measured at 1 hr by HPLC-MS analysis; type: ADME, organism-based; details: brain and plasma, read-out: BPR
# [19] = Volume of distribution at steady state in C57BL/6 mouse at 1 mg/kg, iv and 3 mg/kg, ip measured upto 24 hrs by HPLC-MS analysis; type: ADME, organism-based; details: in vivo, read-out: Vdss
# [20] = Apparent permeability across basolateral to apical side in MDCK-MDR1 cells; type: ADME, cell-based, Canis lupus familiaris; details: dog
# [21] = molecular target: Phosphatidylinositol 4,5-bisphosphate 3-kinase catalytic subunit alpha isoform (Homo sapiens, UniProt P42336); assay: Inhibition of PI3Kalpha (unknown origin)
# Chain of Phosphatidylinositol 4,5-bisphosphate 3-kinase catalytic subunit alpha isoform (P42336 whole entry, canonical isoform): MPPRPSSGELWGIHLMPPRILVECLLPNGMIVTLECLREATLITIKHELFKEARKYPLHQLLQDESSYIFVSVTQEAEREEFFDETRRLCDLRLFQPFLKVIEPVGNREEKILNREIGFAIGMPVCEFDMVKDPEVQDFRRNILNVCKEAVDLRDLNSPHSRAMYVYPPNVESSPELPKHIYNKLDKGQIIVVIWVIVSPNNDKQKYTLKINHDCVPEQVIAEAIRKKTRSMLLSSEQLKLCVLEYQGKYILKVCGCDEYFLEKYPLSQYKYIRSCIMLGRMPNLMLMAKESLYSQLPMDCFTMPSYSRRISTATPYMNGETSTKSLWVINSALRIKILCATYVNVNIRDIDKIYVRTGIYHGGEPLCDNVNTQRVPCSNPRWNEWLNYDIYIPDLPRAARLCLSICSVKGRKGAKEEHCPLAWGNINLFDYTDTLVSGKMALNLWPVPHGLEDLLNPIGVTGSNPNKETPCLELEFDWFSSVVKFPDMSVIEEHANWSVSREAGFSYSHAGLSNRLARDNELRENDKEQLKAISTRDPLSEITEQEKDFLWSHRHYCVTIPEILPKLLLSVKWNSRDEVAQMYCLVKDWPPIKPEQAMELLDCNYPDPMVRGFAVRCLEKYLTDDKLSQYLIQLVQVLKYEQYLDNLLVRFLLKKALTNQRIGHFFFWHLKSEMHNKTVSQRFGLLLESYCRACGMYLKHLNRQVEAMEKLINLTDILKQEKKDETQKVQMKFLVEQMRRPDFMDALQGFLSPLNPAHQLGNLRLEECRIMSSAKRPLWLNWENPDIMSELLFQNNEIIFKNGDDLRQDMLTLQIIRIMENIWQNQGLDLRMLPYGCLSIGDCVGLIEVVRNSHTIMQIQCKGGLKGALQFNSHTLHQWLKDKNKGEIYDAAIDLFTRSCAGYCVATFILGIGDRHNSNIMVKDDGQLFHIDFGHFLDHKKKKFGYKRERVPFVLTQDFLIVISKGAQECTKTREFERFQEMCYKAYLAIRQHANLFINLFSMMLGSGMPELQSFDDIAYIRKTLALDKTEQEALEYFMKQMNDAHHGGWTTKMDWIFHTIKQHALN
# [22] = In vivo inhibition of phosphorylation of AKT at serine 473 residues in C57BL/6 mouse brain at 10 mg/kg, po measured after 8 hrs by Western blotting analysis; type: organism-based
# [23] = Tmax in cynomolgus monkey at 1 mg/kg, po and 0.1 mg/kg, iv measured upto 24 hrs by LC/MS/MS analysis; type: ADME, organism-based, Macaca fascicularis; details: in vivo
# [24] = Tmax in Sprague-Dawley rat at 3 mg/kg, po and 1 mg/kg, iv measured upto 24 hrs by HPLC-MS analysis; type: ADME, organism-based; details: in vivo
# [25] = Half life in C57BL/6 mouse at 1 mg/kg, iv and 3 mg/kg, ip measured upto 24 hrs by HPLC-MS analysis; type: ADME, organism-based; details: in vivo
# [26] = molecular target: Phosphatidylinositol 4,5-bisphosphate 3-kinase catalytic subunit gamma isoform (Homo sapiens, UniProt P48736); assay: Inhibition of PI3Kgamma (unknown origin)
# [27] = Apparent permeability across apical to basolateral side in MDCK-MDR1 cells; type: ADME, cell-based, Canis lupus familiaris; details: dog
# [28] = molecular target: 3',5'-cyclic-AMP phosphodiesterase 4D (Homo sapiens, UniProt Q08499); assay: Inhibition of PDE4D (unknown origin)
# Chain of 3',5'-cyclic-AMP phosphodiesterase 4D (Q08499 whole entry): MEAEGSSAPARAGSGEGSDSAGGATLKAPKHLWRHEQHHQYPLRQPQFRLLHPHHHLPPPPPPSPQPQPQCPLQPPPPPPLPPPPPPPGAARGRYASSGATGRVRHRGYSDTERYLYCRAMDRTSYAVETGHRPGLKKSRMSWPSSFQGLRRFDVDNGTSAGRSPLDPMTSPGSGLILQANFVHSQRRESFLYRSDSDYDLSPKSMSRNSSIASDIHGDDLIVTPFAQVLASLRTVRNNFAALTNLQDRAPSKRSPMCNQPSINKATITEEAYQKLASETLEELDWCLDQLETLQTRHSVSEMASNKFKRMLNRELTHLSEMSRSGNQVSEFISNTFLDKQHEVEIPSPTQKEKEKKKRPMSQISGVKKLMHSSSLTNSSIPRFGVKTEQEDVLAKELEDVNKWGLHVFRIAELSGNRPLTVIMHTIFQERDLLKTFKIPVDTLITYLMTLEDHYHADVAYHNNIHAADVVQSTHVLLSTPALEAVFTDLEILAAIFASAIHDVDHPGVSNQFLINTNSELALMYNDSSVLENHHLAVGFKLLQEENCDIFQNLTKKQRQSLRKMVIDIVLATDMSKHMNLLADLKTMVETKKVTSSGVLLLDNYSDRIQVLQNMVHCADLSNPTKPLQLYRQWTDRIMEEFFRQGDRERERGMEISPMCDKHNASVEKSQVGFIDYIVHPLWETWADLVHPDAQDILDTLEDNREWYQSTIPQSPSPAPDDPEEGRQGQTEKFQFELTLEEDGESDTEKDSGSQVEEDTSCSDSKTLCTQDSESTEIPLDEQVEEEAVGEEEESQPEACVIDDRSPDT
# [29] = Ratio of drug concentration in brain to plasma in C57BL/6 mouse at 3 mg/kg, po measured at 8 hrs; type: ADME, organism-based; details: read-out: BPR
# [30] = Ratio of drug concentration in brain to plasma in C57BL/6 mouse at 30 mg/kg, po measured at 8 hrs; type: ADME, organism-based; details: read-out: BPR
# [31] = Metabolic stability in human liver microsomes assessed as intrinsic clearance at 1 uM incubated for 30 mins in presence of NADPH by LC-MS/MS analysis; type: ADME, Microsome; details: read-out: CLH
# [32] = Metabolic stability in rat liver microsomes assessed as intrinsic clearance at 1 uM incubated for 30 mins in presence of NADPH by LC-MS/MS analysis; type: ADME, Microsome; details: read-out: CLH
# [33] = Ratio of drug concentration in brain to plasma in Sprague-Dawley rat at 1 mg/kg, iv measured at 1 hr by HPLC-MS analysis; type: ADME, organism-based; details: brain and plasma, read-out: BPR
# [34] = Drug concentration in C57BL/6 mouse brain at 30 mg/kg, po measured after 1 hr; type: ADME, organism-based; details: read-out: Ct
# [35] = Drug concentration in C57BL/6 mouse brain at 3 mg/kg, po measured after 24 hrs; type: ADME, organism-based; details: read-out: Ct
# [36] = MRT(0 to t) in Sprague-Dawley rat at 3 mg/kg, po and 1 mg/kg, iv measured upto 24 hrs by HPLC-MS analysis; type: ADME, organism-based; details: in vivo
# [37] = AUC(0 to t) in Sprague-Dawley rat at 1 mg/kg, iv measured upto 24 hrs by HPLC-MS analysis; type: ADME, organism-based; parameters: dose 1 mg/kg, time < 24 hrs, route iv; details: in vivo
# Cytochrome P450 3A4 = Cytochrome P450 3A4 (Homo sapiens, UniProt P08684); assay: Inhibition of CYP3A4 (unknown origin) assessed as Kobs; type: ADME
# [38] = AUC(0 to t) in C57BL/6 mouse at 3 mg/kg, ip measured upto 24 hrs by HPLC-MS analysis; type: ADME, organism-based; parameters: time < 24 hrs, dose 3 mg/kg, route ip; details: in vivo
# [39] = Ratio of drug concentration in brain to plasma in C57BL/6 mouse at 10 mg/kg, po measured at 24 hrs; type: ADME, organism-based; details: brain and plasma, read-out: BPR
# [40] = Tmax in cynomolgus monkey at 0.3 mg/kg, po measured upto 24 hrs by LC/MS/MS analysis; type: ADME, organism-based, Macaca fascicularis; details: in vivo
# [41] = In vivo inhibition of phosphorylation of AKT at serine 473 residues in C57BL/6 mouse brain at 10 to 30 mg/kg, po measured after 3 hrs by Western blotting analysis; type: organism-based; details: dose 10-30 mg/kg
# [42] = AUC(0 to t) in Beagle dog at 0.3 mg/kg, iv measured upto 24 hrs by LC/MS/MS analysis; type: ADME, organism-based, Canis lupus familiaris; parameters: time < 24 hrs, dose 0.3 mg/kg, route iv; details: in vivo
# [43] = Cmax in Beagle dog at 1 mg/kg, po measured upto 24 hrs by LC/MS/MS analysis; type: ADME, organism-based, Canis lupus familiaris; parameters: dose 1 mg/kg, time < 24 hrs, route po; details: in vivo
# Chain of Cytochrome P450 2C9 (P11712 whole entry): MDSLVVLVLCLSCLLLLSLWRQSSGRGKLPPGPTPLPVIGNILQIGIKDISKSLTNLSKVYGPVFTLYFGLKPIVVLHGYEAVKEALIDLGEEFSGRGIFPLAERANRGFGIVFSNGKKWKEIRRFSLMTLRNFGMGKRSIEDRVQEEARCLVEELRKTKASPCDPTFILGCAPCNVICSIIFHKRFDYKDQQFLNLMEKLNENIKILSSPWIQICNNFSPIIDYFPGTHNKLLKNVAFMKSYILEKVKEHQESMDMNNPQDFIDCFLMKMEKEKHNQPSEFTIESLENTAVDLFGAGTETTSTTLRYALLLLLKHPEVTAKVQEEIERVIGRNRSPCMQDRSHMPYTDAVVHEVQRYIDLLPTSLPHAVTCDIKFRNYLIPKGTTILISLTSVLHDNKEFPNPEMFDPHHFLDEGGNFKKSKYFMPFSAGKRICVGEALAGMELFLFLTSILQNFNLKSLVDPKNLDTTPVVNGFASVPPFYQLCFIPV
compound,measurement,setting,value
C[C@@H]1COCCN1c1cc(N2CCOC[C@@H]2C)nc2[nH]c(-c3cscn3)nc12,concentration at 1 h,[1],766 nM
same,IC50,Cytochrome P450 2C9,> 50 µM
same,Activity,[2],Non-Toxic
same,concentration at 8 h,[3],230 nM
same,Kp at 24 h,[4],0.66
same,bioavailability,[5],107%
same,IC50,[6],14.4 µM
same,"fraction unbound at 4 h, 5 µM",[7],0.18
same,concentration at 1 h,[8],10200 nM
same,"fraction unbound at 4 h, 5 µM",[9],0.068
same,AUC(0-t) at 24 h,[10],6.45 µM·h
same,"fraction unbound at 4 h, 5 µM",[11],0.086
same,concentration at 24 h,[12],130 nM
same,concentration at 8 h,[13],246 nM
same,Kp at 3 h,[14],0.75
same,Kp at 1 h,[15],0.97
same,concentration at 24 h,[16],211 nM
same,Activity,[17],Non-Toxic
same,Kp at 1 h,[18],0.33
same,Vd,[19],2.8 L/kg
same,Papp B→A,[20],12 ×10⁻⁶ cm/s
same,IC50,[21],> 10 µM
same,inhibition (INH),[22],Active
same,Tmax,[23],1.2 h
same,Tmax,[24],1.5 h
same,half-life,[25],2.7 h
same,IC50,[26],> 10 µM
same,Papp A→B,[27],14 ×10⁻⁶ cm/s
same,IC50,[28],6.3 µM
same,Kp at 8 h,[29],0.29
same,Kp at 8 h,[30],0.73
same,microsomal CLint at 1 µM,[31],3.4 µL/min/mg
same,microsomal CLint at 1 µM,[32],21 µL/min/mg
same,Kp at 1 h,[33],0.35
same,concentration at 1 h,[34],13100 nM
same,concentration at 24 h,[35],5 nM
same,MRT last at 24 h,[36],2.2 h
same,AUC(0-t) at 24 h,[37],2.39 µM·h
same,Kobs,Cytochrome P450 3A4,0.021 min⁻¹
same,AUC(0-t) at 24 h,[38],11.7 µM·h
same,Kp at 24 h,[39],0.62
C[C@@H]1COCCN1c1cc(N2CCOC[C@@H]2C)nc2[nH]c(-c3ccccn3)nc12,IC50,Cytochrome P450 2C9,> 50 µM
same,Activity,[2],Non-Toxic
same,Kp at 24 h,[4],0.7
same,bioavailability,[5],122%
same,IC50,[6],17.2 µM
same,"fraction unbound at 4 h, 5 µM",[7],0.134
same,concentration at 1 h,[8],3930 nM
same,"fraction unbound at 4 h, 5 µM",[9],0.065
same,AUC(0-t) at 24 h,[10],29.6 µM·h
same,"fraction unbound at 4 h, 5 µM",[11],0.035
same,Kp at 3 h,[14],0.65
same,Tmax,[40],1.2 h
same,Kp at 1 h,[15],0.6
same,concentration at 24 h,[16],4 nM
same,Activity,[17],Non-Toxic
same,Kp at 1 h,[18],0.72
same,Vd,[19],2.6 L/kg
same,inhibition (INH),[41],Active
same,Papp B→A,[20],20.1 ×10⁻⁶ cm/s
same,IC50,[21],> 10 µM
same,Tmax,[24],1.3 h
same,half-life,[25],2 h
same,IC50,[26],> 10 µM
same,Papp A→B,[27],41.5 ×10⁻⁶ cm/s
same,IC50,[28],17 µM
same,microsomal CLint at 1 µM,[31],22 µL/min/mg
same,microsomal CLint at 1 µM,[32],27 µL/min/mg
same,Kp at 1 h,[33],0.48
same,concentration at 1 h,[34],4050 nM
same,AUC(0-t) at 24 h,[42],0.147 µM·h
same,Cmax,[43],34 nM
same,MRT last at 24 h,[36],2.3 h
same,AUC(0-t) at 24 h,[37],8.09 µM·h
same,Kobs,Cytochrome P450 3A4,0.032 min⁻¹
same,AUC(0-t) at 24 h,[38],6.66 µM·h
